Results published in patent publication EP4596547A1, “HETEROCYCLIC COMPOUND AND HARMFUL ARTHROPOD-CONTROLLING COMPOSITION CONTAINING SAME” (priority 2022, dated 2024).

Key:
Assay type in all cases: in vivo
[1] = tested on: Culex pipiens pallens; assay: Test method 12: last-instar larvae of Culex pipiens pallens released into diluted solution; settings: 24 h, 30 last-instar larvae, one day later, 25°C
Experimental: The test compound is formulated according to the method described in Formulation Example 1, and water is added thereto to prepare a diluted solution containing the test compound at a predetermined concentration. 30 last-instar larvae of Culex pipiens pallens are released into the diluted solution, and the state of the larvae of Culex pipiens is examined one day later to determine the Mortality. The mortality is calculated by the following equation. [formula]

[2] = tested on: cotton aphids (Aphis gossypii); assay: Test method 11: foliar spray on cucumber seedlings inoculated with cotton aphids (formulation per Formulation Example 5); settings: 120 h, sprayed 10 mL/seedling one day after inoculation, after 5 days, 25°C, read-out: control value
[3] = tested on: cotton aphids (Aphis gossypii); assay: Test method 1: foliar spray on cucumber seedlings inoculated with cotton aphids (formulation per Formulation Example 1); design: mortality: concentration or dose not given beside the values; settings: 120 h, sprayed 10 mL/seedling one day after inoculation, surviving insects examined after 5 days, 25°C, read-out: control value
[4] = tested on: diamondback moth (Plutella xylostella); assay: Test method 4: sprayed cabbage foliage cut out, second instar larvae of diamondback moth released; settings: foliar, 120 h, sprayed 20 mL/seedling, five second instar larvae, after 5 days, 25°C
Experimental: A test compound is formed into a formulation according to the method described in Formulation Example 1, and water containing 0.03% by volume of Shindain (registered trademark) is added thereto to prepare a diluted solution containing the test compound at a predetermined concentration.
A cabbage (Brassicae oleracea) seedling (2 to 3 true leaf stage) planted in a container is sprayed with the diluted solution at a rate of 20 mL/seedling. Thereafter, the foliage portion of the seedling is cut out and placed in a container on which filter paper is laid. Thereto are released five second instar larvae of diamondback moth (Plutella xylostella). After 5 days, the number of surviving insects is counted, and the mortality is determined from the following equation. [formula]

[5] = tested on: diamondback moth (Plutella xylostella); assay: Test method 10: sprayed cabbage seedling, third instar larvae of diamondback moth released; settings: 144 h, sprayed 20 mL/seedling, 10 third instar larvae, after 6 days, 25°C
Experimental: A test compound is formed into a formulation according to the method described in Formulation Example 5, and water containing 0.03% by volume of Shindain (registered trademark) is added thereto to prepare a diluted solution containing the test compound at a predetermined concentration.
A cabbage (Brassicae oleracea) seedling (3 to 4 true leaf stage) planted in a container is sprayed with the diluted solution at a rate of 20 mL/seedling. Thereafter, 10 third instar larvae of diamondback moth (Plutella xylostella) are released. After 6 days, the number of surviving insects is counted, and the mortality is determined from the following equation. [formula]

[6] = tested on: Aphis gossypii; assay: Test method 2: soil irrigation of cucumber seedlings, later inoculated with Aphis gossypii; settings: 144 h, irrigated 5 mL/seedling, inoculated after 7 days, surviving insects examined after 6 days, 25°C, read-out: control value
Experimental: The test compound is formulated according to the method described in Formulation Example 5, and water is added thereto to prepare a diluted solution containing the test compound at a predetermined concentration. A cucumber (Cucumis sativus) seedling (second true leaf stage) planted in a container is irrigated with the diluted solution at a rate of 5 mL/seedling. After 7 days, the leaf surface of this seedling is inoculated with about 30 Aphis gossypii (whole stage). After 6 days, the number of surviving insects is examined, and the control value is determined by the following formula. [formula] • Characters in the formula represent the following meanings. • Cb: number of test insects in a non-treated section • Cai: number of surviving insects in a non-treated section at the time of investigation • Tb: number of test insects in a treated section • Tai: number of surviving insects in a treated section at the time of investigation Herein, the non-treated section means a section that is subjected to the same operation as that of the treated section except that the test compound is not used.

SMILES	mortality at 3.5 ppm [1] [%]	mortality at 50 ppm [2] [%]	mortality at 200 ppm [2] [%]	mortality at 500 ppm [3] [%]	mortality at 500 ppm [4] [%]	mortality at 200 ppm [5] [%]	mortality at 1000 ppm [6] [%]	mortality at 50 ppm [5] [%]	mortality [3] [%]
CCS(=O)(=O)c1c(N(C)C(=O)c2cc(OC(F)F)n(C)n2)nc2ccc(I)cn12 [compound 55]	> 90								
CCSc1c(N(C)C(=O)c2ccc(C(F)(F)F)o2)nc2ccc(I)cn12 [compound 5]	> 90	≥ 90	≥ 90	≥ 90	≥ 80				
CCSc1c(N(C)C(=O)c2cn(CC(F)(F)F)nn2)nc2ccc(I)cn12 [compound 27]	> 90		≥ 90	≥ 90		≥ 80			
CCS(=O)(=O)c1c(N(C)C(=O)c2cnn(C(F)(F)F)c2)nc2ccc(I)cn12 [compound 61]				≥ 90	≥ 80				
CC[S+]([O-])c1c(N(C)C(=O)c2cnc(C(F)(F)F)s2)nc2ccc(C(F)(F)F)cn12 (stereo not drawn) [compound 43]		≥ 90	≥ 90	≥ 90	≥ 80	≥ 80	≥ 90		
CC[S+]([O-])c1c(N(C)C(=O)c2cnc(C(F)(F)F)s2)nc2ccc(Br)cn12 (stereo not drawn) [compound 41]		≥ 90	≥ 90	≥ 90	≥ 80	≥ 80	≥ 90		
CCS(=O)(=O)c1c(N(C)C(=O)c2cnn(C3CC3)c2)nc2ccc(I)cn12 [compound 64]				≥ 90	≥ 80		≥ 90		
CCSc1c(N(C)C(=O)c2ccn(C(F)F)n2)nc2ccc(I)cn12 [compound 19]	> 90	≥ 90	≥ 90	≥ 90					
CCSc1c(N(C)C(=O)c2cnc(C(F)(F)F)s2)nc2cc(Br)ccn12 [compound 11]	> 90	≥ 90	≥ 90	≥ 90	≥ 80		≥ 90		
CCS(=O)(=O)c1c(N(C)C(=O)c2nc(C(F)(F)F)cs2)nc2ccc(I)cn12 [compound 50]					≥ 80				
CCS(=O)(=O)c1c(N(C)C(=O)c2ccn(C3CC3)n2)nc2ccc(I)cn12 [compound 57]	> 90		≥ 90	≥ 90	≥ 80				
CCSc1c(N(C)C(=O)c2cnc(C(F)(F)F)s2)nc2ccc(C(F)(F)F)cn12 [compound 9]	> 90	≥ 90	≥ 90	≥ 90	≥ 80				
CCSc1c(N(C)C(=O)c2cnc(C(F)(F)F)s2)nc2ccc(Br)cn12 [compound 8]	> 90	≥ 90	≥ 90	≥ 90	≥ 80				
CCS(=O)(=O)c1c(N(C)C(=O)c2cnn(C(F)F)c2)nc2ccc(I)cn12 [compound 63]				≥ 90	≥ 80				
CCS(=O)(=O)c1c(N(C)C(=O)c2cc(C(F)(F)F)nn2C)nc2ccc(I)cn12 [compound 36]		≥ 90	≥ 90			≥ 80		≥ 80	
CCS(=O)(=O)c1c(N(C)C(=O)c2cnc(C(F)(F)F)s2)nc2ccc(C(F)(F)F)cn12 [compound 44]	> 90	≥ 90	≥ 90	≥ 90	≥ 80	≥ 80	≥ 90		
CCS(=O)(=O)c1c(N(C)C(=O)c2cc(Br)n(C)n2)nc2ccc(I)cn12 [compound 53]		≥ 90	≥ 90	≥ 90	≥ 80				
CC[S+]([O-])c1c(N(C)C(=O)c2cnc(C(F)(F)F)s2)nc2cc(Br)ccn12 (stereo not drawn) [compound 47]		≥ 90	≥ 90	≥ 90	≥ 80	≥ 80	≥ 90		
CCS(=O)(=O)c1c(N(C)C(=O)c2cnc(C(F)(F)F)s2)nc2cc(I)ccn12 [compound 46]	> 90	≥ 90	≥ 90		≥ 80		≥ 90		≥ 90
CCS(=O)(=O)c1c(N(C)C(=O)c2cn(CC(F)(F)F)nn2)nc2ccc(I)cn12 [compound 67]	> 90	≥ 90	≥ 90	≥ 90			≥ 90		
CCSc1c(N(C)C(=O)c2cnc(C(F)(F)F)s2)nc2ccc(I)cn12 [compound 7]	> 90	≥ 90	≥ 90	≥ 90	≥ 80	≥ 80	≥ 90	≥ 80	
CC[S+]([O-])c1c(N(C)C(=O)c2cnn(C(F)(F)F)c2)nc2ccc(I)cn12 (stereo not drawn) [compound 60]				≥ 90	≥ 80				
CCSc1c(N(C)C(=O)c2cc(C(F)(F)F)nn2C)nc2ccc(I)cn12 [compound 3]	> 90	≥ 90	≥ 90	≥ 90	≥ 80	≥ 80			
CCSc1c(N(C)C(=O)c2cnc(C(F)(F)F)s2)nc2cc(I)ccn12 [compound 10]	> 90	≥ 90	≥ 90	≥ 90	≥ 80	≥ 80			
CCS(=O)(=O)c1c(N(C)C(=O)c2ccc(C(F)(F)F)o2)nc2ccc(I)cn12 [compound 39]	> 90	≥ 90	≥ 90	≥ 90	≥ 80		≥ 90		
CCS(=O)(=O)c1c(N(C)C(=O)c2cnc(C(F)(F)F)s2)nc2ccc(Br)cn12 [compound 42]	> 90	≥ 90	≥ 90	≥ 90	≥ 80	≥ 80	≥ 90		
CCSc1c(N(C)C(=O)c2nc(C(F)(F)F)cs2)nc2ccc(I)cn12 [compound 13]	> 90		≥ 90	≥ 90	≥ 80				
CCSc1c(N(C)C(=O)c2cnn(C(F)F)c2)nc2ccc(I)cn12 [compound 24]	> 90		≥ 90	≥ 90	≥ 80				
